The source of these data is article PMC9475137, “Sesquiterpene lactones from Artemisia vulgaris L. as potential NO inhibitors in LPS-induced RAW264.7 macrophage cells” (Frontiers in Chemistry, 2022).

What all share (assay type): cell-based
Data set [1] relates to NO production in LPS-induced RAW264.7 cells. Briefly: Inhibition of NO production in LPS-induced RAW264.7 macrophages (Griess reagent). To be noted: for IC50: Mus musculus, RAW264.7, pretreated 1 h with compounds (0.25–4 μM), LPS 1 μg/ml 18 h, Mean ± SD, read-out: IC50 (μM), NO inhibition toward LPS-induced RAW264.7 cells. On the procedure: The level of accumulated nitrite in the culture media reflected the level of NO using the classic Griess reagent (Beyotime, Jiangsu, China). The RAW264.7 cells were seeded in a 96-well plate with a 6 ×10^4 cells/ml density for the indicated time. Then, the cells were pretreated for 1 h with test compounds (0.25–4 μM), followed by stimulation with LPS (1 μg/ml) for 18 h. Finally, 50 ul of the culture supernatant was mixed with an equal amount of the Griess reagent, and the optical densities at 570 nm were read using a microplate reader. The nitric oxide concentration of the samples was calculated according to the standard curve.

Data set [2] in a line: Cytotoxicity against RAW264.7 cells (CCK8). To be noted: mouse, 24 h incubation, 3.125–200 μM. On the procedure: For the cytotoxicity assay, RAW 264.7 cells were grown in DMEM containing 10% FBS and cultured at 37°C. Then, the cells were seeded in a 96-well plate (1 × 10^4 cells/well) before the cells were incubated for 24 h in various concentrations of compounds (3.125–200 μM). Cell viability was examined using a CCK8-kit. The CCK8 solution (5 µl) was added to each well and incubated for 1–2 h at 37°C. The OD value at 450 nm was quantified by Graphpad software, and the corresponding 50% cytotoxic concentration (CC50) of the compounds was subsequently obtained.

A further data set deals with iNOS. Briefly: iNOS expression in LPS-induced RAW264.7 cells (quantitative real-time PCR and Western blotting). The note with it: LPS-induced RAW264.7 macrophages; qPCR and Western blotting; compound 1 at 4 μM compared with dexamethasone. On the procedure:
(§1) RAW264.7 cells were seeded in a six-well plate (10 × 10^5 cells/well) for the indicated time. Cells were pretreated with compound 1 (0.5, 1, and 4 μM) for 1 h and then stimulated with LPS (1 ug/mL) for 18 h. Total cellular RNA was extracted with Trizol reagent (TIANGEN, Beijing, China). One microgram of RNA per sample was reverse-transcribed into cDNA using the PrimeScript RT Reagent Kit (TAKARA, Dalian, China). qPCR assays were performed by the CFX96 Touch Real-Time PCR Detection System (Bio-Rad). The following primers were used: iNOS (forward, 5′-AAACCCCAGGTGCTATTCCC-3′; reverse, 5′-TGGGTCCTCTGGTCAAACTC-3′), COX-2 (forward, 5′-ATTCCAAACCAGCAGACTCATA-3′; reverse, CTTGAGTTTGAAGTGGTAACCG-3′), and GAPDH (forward, 5′- GTCATTGAGAGCAATGCCAG-3′; reverse, 5′-GTGTTCCTACCCCCAATGTG-3′). […]
(§2) RAW264.7 cells with the indicated treatment were harvested and treated in a RIPA lysis buffer (Beyotime, Shanghai, China) containing a protease and phosphatase inhibitor cocktail (Beyotime, Shanghai, China) to obtain the lysates. Then, the total proteins were measured using the bicinchoninic acid (BCA) protein assay kit (Beyotime, Shanghai, China) and regulated by a loading buffer and the RIPA lysis buffer. […] Finally, the protein bands were detected using the ImageJ software (Bio-Rad, Hercules, CA, United States).

The next data set concerns COX-2. Put plainly: COX-2 expression in LPS-induced RAW264.7 cells (quantitative real-time PCR and Western blotting). The note with it: LPS-induced RAW264.7 macrophages; qPCR and Western blotting; compound 1 at 4 μM compared with dexamethasone. On the procedure: as §1, §2

Entries after “also recorded” stand apart in the source; their conditions may differ. A value given as a limit tells only on which side of the number the result lay.

As for `C=C1CC(OC(=O)C(C)=CC)C2C(C)C(=O)OC2C2C(C)=CCC12O` (stereo not drawn) [Compound 5, Artemvulactone L], in data set [1], the IC50 is above 10 µM. Moreover, the CC50 at 24 h in data set [2] was above 100 µM.

Take `C=C1C(=O)O[C@H]2[C@H]1[C@@H](OC(=O)CC(C)C)CC(=C)[C@]1(O)CC=C(C)[C@H]21` [Compound 4, Artemvulactone K]: the IC50 in data set [1] stood at 3.6 ± 0.1 µM. Also, the CC50 at 24 h in data set [2] is above 20 µM.

On to `C=C1C(=O)O[C@@H]2[C@H]3C(C)=CC(=O)C3=C(C)C[C@H](OC(C)=O)[C@@H]12` [Compound 22, Dehydromatricarin], for which, in data set [1], the IC50 was determined as 1.8 ± 0.2 µM. The molecule further showed a CC50 at 24 h in data set [2] above 10 µM.

For the molecule `C=C1C(=O)O[C@H]2[C@H]1[C@@H](OC(=O)C(C)C)C=C(C)[C@]1(O)C[C@H]3O[C@@]3(C)[C@H]21` [Compound 8, Artemvulactone O], the IC50 in data set [1] came out at 3.2 ± 0.1 µM. The CC50 at 24 h in data set [2] is above 20 µM.

Take `C=C1C(=O)O[C@@H]2[C@H]3C(C)=CC(=O)C3=C(C)C[C@H](OC(=O)CC)[C@@H]12` [Compound 9, Artemvulactone P]: the IC50 in data set [1] was found to be 1.9 ± 0.8 µM. This molecule yielded a CC50 at 24 h in data set [2] above 20 µM.

As to `C=C1C(=O)O[C@H]2[C@H]1[C@@H](OC(C)=O)CC(C)=C1C[C@H]3O[C@@]3(C)[C@@H]12` [Compound 21, (+)-Arteglasin A], the concentration for half-maximal inhibition (IC50) in data set [1] stood at 1.2 ± 0.2 µM. Also, in data set [2], the CC50 at 24 h was above 20 µM.

Regarding `C=C1C(=O)O[C@H]2[C@H]1[C@@H](OC(=O)CC(C)C)C=C(C)[C@]1(O)CC=C(C)[C@H]21` [Compound 3, Artemvulactone J], in data set [1], the IC50 is 2.8 ± 0.1 µM. Further, the CC50 at 24 h in data set [2] is above 10 µM.

Take `C=C1C(=O)OC2C1C(OC(=O)CC)CC(C)(OC)C1C(=O)C=C(C)C21` (stereo not drawn) [Compound 10, Artemvulactone Q]: in data set [1], the IC50 is 2.1 ± 0.1 µM. Moreover, the CC50 at 24 h in data set [2] is above 10 µM.

Consider `C=C1C(=O)O[C@H]2[C@H]1[C@@H](OC(=O)C=C(C)C)CC(=C)[C@]1(O)CC=C(C)[C@H]21` [Compound 14, 1α-hydroxy-8α-senecioyloxy-3(4),10(14),11(13)-trienguai-12,6α-olide], for which the IC50 in data set [1] was 1.4 ± 0.2 µM. In data set [2], this molecule gave a CC50 at 24 h above 15 µM.

`C=C1C(=O)O[C@H]2[C@H]1[C@@H](OC(=O)C(C)CC)C=C(C)[C@]1(O)CC=C(C)[C@H]21` (stereo partly drawn) [Compound 2, Artemvulactone I]: the IC50 in data set [1] was 1.2 ± 0.3 µM. For the same molecule, in data set [2], the CC50 at 24 h is above 10 µM.

As for `C=C1C(=O)O[C@@H]2[C@H]3C(C)=CC(=O)C3=C(C)CC[C@@H]12` [Compound 20, dehydroleucodine], the IC50 in data set [1] worked out at 1.8 ± 0.1 µM. Also, in data set [2], the CC50 at 24 h was above 70 µM.

For `C=C1C(=O)O[C@H]2[C@H]1[C@@H](OC(=O)C(C)C)CC(=C)[C@]1(O)C[C@H]3O[C@@]3(C)[C@H]21` [Compound 6, Artemvulactone M], the IC50 in data set [1] was 3.1 ± 0.1 µM. This molecule also gave a CC50 at 24 h in data set [2] above 20 µM.

`C=C1C(=O)OC2C1CCC(C)(O)C1(O)C(Cl)C3OC3(C)C21` (stereo not drawn) [Compound 12, Artemvulactone S]: the IC50 in data set [1] came to 2.7 ± 0.5 µM. Further, the CC50 at 24 h in data set [2] was above 40 µM.

On to `C=C1C(=O)O[C@H]2[C@H]1[C@@H](OC(=O)/C(C)=C\C)CC(=C)[C@]1(O)CC=C(C)[C@H]21` [Compound 7, Artemvulactone N], for which, in data set [1], the IC50 was 2.1 ± 0.6 µM. The CC50 at 24 h in data set [2] is above 20 µM.

Consider `C[C@@H]1C[C@H]2[C@@H]3CCC4=CC(=O)C=C[C@]4(C)[C@@]3(F)[C@@H](O)C[C@]2(C)[C@@]1(O)C(=O)CO` [Dexamethasone, reference compound], for which, in data set [1], the IC50 came to 4.3 ± 0.3 µM.

Turning to `C=C1C(=O)O[C@H]2[C@H]1[C@@H](OC(=O)/C(C)=C\C)C=C(C)[C@]1(O)CC=C(C)[C@H]21` [Compound 1, Artemvulactone H], the “NO production inhibitory effect, in words (ranking / comparison with positive control dexamethasone)” value in data set [1] (LPS-stimulated RAW264.7 cells) was “most active”. For the same molecule, the 50% inhibitory concentration (IC50) in data set [1] turned out to be 1.1 ± 0.1 µM. Further, the CC50 at 24 h in data set [2] was above 10 µM. Moreover, the “expression of iNOS” value with iNOS was “reduced more expressions of iNOS and COX-2 than the positive drug; also recorded: suppressed”. Moreover, the “expression of COX-2” value in the data set with COX-2 is “reduced more expressions of iNOS and COX-2 than the positive drug; also recorded: suppressed”.

For `C=C1C(=O)O[C@H]2[C@H]1[C@@H](OC(=O)CC)C=C(C)[C@]1(O)C[C@H]3O[C@@]3(C)[C@H]21` [Compound 11, Artemvulactone R], the IC50 in data set [1] stood at 1.9 ± 0.4 µM. In addition, the CC50 at 24 h in data set [2] is above 15 µM.

In the case of `C=C1C(=O)O[C@H]2[C@H]1[C@@H](OC(=O)C(C)CC)CC(=C)[C@]1(O)CC=C(C)[C@H]21` (stereo partly drawn) [Compound 13, 1α-hydroxy-8α-methylbutyroxy-3(4),10(14),11(13)-trienguai-12,6α-olide], the IC50 in data set [1] was determined as 1.5 ± 0.1 µM. Besides, the CC50 at 24 h in data set [2] is above 15 µM.

For the molecule `C=C1C(=O)O[C@H]2[C@H]1[C@@H](OC(=O)C(C)C)C=C(C)[C@]1(O)CC=C(C)[C@H]21` [Compound 18, 8-epi-isobutyrylrupicolin], the IC50 in data set [1] amounted to 1.1 ± 0.1 µM. Further, in data set [2], the CC50 at 24 h is above 20 µM.

Turning to `C=C1C(=O)O[C@H]2[C@H]1[C@@H](OC(=O)C(C)C)CC(=C)[C@]1(O)CC=C(C)[C@H]21` [Compound 17, 8-epi-isobutyrylrupicolin B], the IC50 in data set [1] is 1.5 ± 0.1 µM. In data set [2], this molecule showed a CC50 at 24 h above 20 µM.

In the case of `C=C1C(=O)O[C@H]2[C@H]1[C@@H](OC(=O)/C(C)=C\C)CC(=C)[C@]1(O)C[C@H]3O[C@@]3(C)[C@H]21` [Compound 16, 8-angeloyloxy-1α-hydroxy-3α, 4α-epoxy-5α, 7αH-10(14), 11(13)-guaiadien-12,6α-olide], in data set [1], the IC50 worked out at 1.1 ± 0.2 µM. The molecule also registered a CC50 at 24 h in data set [2] above 10 µM.

For the molecule `C=C1C(=O)O[C@H]2[C@H]1[C@@H](OC(=O)/C(C)=C/C)CC(=C)[C@]1(O)CC=C(C)[C@H]21` [Compound 15, 8-epi-Tiglylrupicolin B], in data set [1], the IC50 is 1.2 ± 0.1 µM. In data set [2], the CC50 at 24 h is above 10 µM.

On to `C=C1C(=O)O[C@H]2[C@H]1[C@@H](OC(=O)CC(C)C)CC(=C)[C@]1(O)C[C@H]3O[C@@]3(C)[C@H]21` [Compound 19, 3α,4α-epoxyrupicolin E], for which the IC50 in data set [1] turned out to be 1 ± 0.2 µM. This molecule also registered a CC50 at 24 h in data set [2] above 25 µM.
